Read-outs that look alike come from different tables or passages of the source.
Key:
MT4 = assay: Intracellular phosphorylation of 3H-FTdR in MT4 cells; assay type: in vitro ADME; conditions: 1/um 3H-FTdR, within 24 hours, Human MT4
Procedure: (§1) The critical factor for 3'-fluoro-substituted deoxynucleosides to reach a high intracellular efficiency is their ability to be phosphorylated in situ in the infected cells. […] By comparison, the phosphorylation of 50 μm N3 -TdR by HTLV-IIIB -infected H9 cells to the triphosphate during a 24-hour incubation has been reported to reach only 0.9 pmoles/10^6 cells and to be accompanied by an extreme accumulation of the monophosphate of N3 -TdR (460 pmoles/10^6 cells), reflecting a strong inhibition of the dTMP-kinase (Furman et al., Proc. Natl. Acad. Sci. U.S.A. 83 8333 (1986)) and entailing considerable alterations of the deoxynucleoside triphosphate substrate pools (Furman et al., loc. cit.) which affect cellular DNA synthesis.
(§2) Synthesis of nucleotides from 1/um^3 H-FTdR (tritium labeled)
(§3) in cells of various species within 24 hours.

CEM (LAV-II) = assay: Intracellular phosphorylation of 3H-FTdR in CEM (LAV-II) cells; assay type: in vitro ADME; conditions: 1/um 3H-FTdR, within 24 hours, Human CEM (LAV-II)
Procedure: as §1, §2, §3

H9 (HTLV-IIIB) = assay: Intracellular phosphorylation of 3H-FTdR in H9 (HTLV-IIIB) cells; assay type: in vitro ADME; conditions: 1/um 3H-FTdR, within 24 hours, Human H9 (HTLV-IIIB)
Procedure: as §1, §2, §3

NRK-49F = assay: Intracellular phosphorylation of 3H-FTdR in NRK-49F cells; assay type: in vitro ADME; conditions: 1/um 3H-FTdR, within 24 hours, Rat NRK-49F
Procedure: as §1, §2, §3

3T3 = assay: Intracellular phosphorylation of 3H-FTdR in 3T3 cells; assay type: in vitro ADME; conditions: 1/um 3H-FTdR, within 24 hours, Mouse 3T3
Procedure: as §1, §2, §3

[1] = molecular target: T1, thymidine-phosphorylase from human spleen (Homo sapiens, UniProt P19971); assay: Phosphorolytic cleavage by thymidine-phosphorylase; assay type: in vitro ADME
T1 construct: thymidine-phosphorylase from human spleen; from tissue; host or cells: human spleen
T1 sequence (P19971 11-482): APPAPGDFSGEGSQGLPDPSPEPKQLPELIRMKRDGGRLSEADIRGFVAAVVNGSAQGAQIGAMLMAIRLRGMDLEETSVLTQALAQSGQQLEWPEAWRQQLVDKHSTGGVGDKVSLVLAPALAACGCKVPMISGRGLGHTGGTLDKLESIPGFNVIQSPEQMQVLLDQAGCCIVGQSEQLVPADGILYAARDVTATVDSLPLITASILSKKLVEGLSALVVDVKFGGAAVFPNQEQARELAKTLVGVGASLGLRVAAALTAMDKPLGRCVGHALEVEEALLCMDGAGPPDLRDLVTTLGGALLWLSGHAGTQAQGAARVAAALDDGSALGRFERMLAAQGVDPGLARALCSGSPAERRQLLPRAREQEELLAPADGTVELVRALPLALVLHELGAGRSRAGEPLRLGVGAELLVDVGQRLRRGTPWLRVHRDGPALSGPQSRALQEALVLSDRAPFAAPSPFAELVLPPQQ
Text: Therefore FTdR, FddBrUrd and FddFUrd were investigated for their ability to be cleaved by thymidine-phosphorylase from human spleen.

HIV = assay: Inhibition of the cytopathic effect of HIV on MT-4 cells; assay type: cell-based; conditions: for EC50: Human immunodeficiency virus 1, MT4, 144 h
Procedure: (§4) Under in vitro conditions immortalized T-lymphocytes can be killed within few days by the cytopathic effect of HIV. […] For this purpose about 20,000 MT-4 cells (Harada et al. Science 229, 563 (1985)) Were infected with HIV (titer: 0.04 m.o.i.) and incubated in the presence or absence of varying concentrations of compounds according to formula I, with 10% fetal calf serum (FCS) in 200 μl RPMI medium. After 6 days of incubation the viable cells were counted that were excluded from trypan blue staining.

in vitro = conditions: human, mt-4 cells
Procedure: as §4

[2] = system: K-562 acute myeloic leukemia; assay: Inhibition of proliferation of K-562 cells; assay type: cell-based; conditions: Homo sapiens
Text: (§5) Originally FTdR was developed as a cytostatic agent (P. Langen et al., Acta biol. med. Germ. 23, 759, 1969; and U.S. Pat. No. 3,775,397) and, therefore, its cytostatic efficacy has been examined in extensive prior studies. […] Ehrlich-mouse-ascites-carcinoma cells (EMAC) represents an exception to that finding, and this is probably connected to its high capability of phosphorylation of FTdR, which is 10 times higher than in human cells. The fast reversibility of the cytostatic effects on EMAC cells was regarded as a special property of this compound (P. Langen et al., Europ. J. Cancer. 14. 349, 1978). The antiproliferative effect of FTdR and FddUrd, and in comparison thereto of N3 -TdR were tested on human cell lines with regard to a possible use in humans. […] When FTdR is compared to N3 -TdR. The effects are very similar, however somewhat lower in each case for N3 -TdR than for FTdR.
(§6) CD50 : inhibitory dose required to reduce the cell number by 50%

[3] = system: REH acute lymphatic leukemia; assay: Inhibition of proliferation of REH cells; assay type: cell-based; conditions: Homo sapiens
Text: as §5, §6

[4] = system: K-37 immortalized T-cells; assay: Inhibition of proliferation of K-37 cells; assay type: cell-based; conditions: Homo sapiens, T-cell
Text: as §5, §6

H9 immortalized T-cells = assay: Inhibition of proliferation of H9 cells; assay type: cell-based; conditions: Homo sapiens, T-cell
Text: as §5, §6

[5] = system: Rauscher murine leukemia virus (RLV); assay: Antiretroviral activity in mice infected with Rauscher murine leukemia virus; assay type: in vivo; conditions: for Reverse transcriptas serum / mean spleen weight: RLV +; for Reverse transcriptas serum: 100% = 66000 dpm, treatment discontinued 12 hours before
Procedure: (§7) Therefore we examined the toxicity and antiretroviral activity of FTdR in mice infected with Rauscher murine leukemia virus. Different doses of FTdR were applied to BalB/c Han strain of mice in plain water for 20 days beginning 2-8 hours after RLV infection.

[6] = Toxicity of continuous oral FTdR in mice
Procedure: as §7

[7] = system: 9 different animal tumors; conditions: NCI program; cited from earlier work
[8] = system: Ehrlich-mouse-ascites-carcinoma cells (EMAC); conditions: cited from earlier work
[9] = system: HTLV-IIIB -infected H9 cells; conditions: 50 μm N3 -TdR, 24-hour incubation; cited from earlier work
[10] = AIDS patients treated; cited from earlier work
[11] = oral 1.8 mg/kg/day, given for 24 days
[12] = 6.5 mg/kg/day in drinking water for 20 days, RLV +
[13] = 6.5 mg/kg/day in drinking water for 20 days, RLV -
[14] = 69.0 mg/kg/day in drinking water for 20 days, RLV +
[15] = 69.0 mg/kg/day in drinking water for 20 days, RLV -

Question: Which results are given for Cc1cn([C@H]2C[C@H](F)[C@@H](CO)O2)c(=O)[nH]c1=O [FTdR, 2',3'-dideoxy-3'-fluorothymidine]?
Answer: diphosphate (FdTDP) (MT4): 1.6 pmoles/106 cells; monophosphate (FdTMP) (MT4): 9.9 pmoles/106 cells; triphosphate (FdTTP) (MT4): 5.6 pmoles/106 cells; diphosphate (FdTDP) (CEM (LAV-II)): 0.5 pmoles/106 cells; monophosphate (FdTMP) (CEM (LAV-II)): 6.1 pmoles/106 cells; triphosphate (FdTTP) (CEM (LAV-II)): 2.8 pmoles/106 cells; diphosphate (FdTDP) (H9 (HTLV-IIIB)): 0.3 pmoles/106 cells; monophosphate (FdTMP) (H9 (HTLV-IIIB)): 3.3 pmoles/106 cells; triphosphate (FdTTP) (H9 (HTLV-IIIB)): 1.4 pmoles/106 cells; diphosphate (FdTDP) (NRK-49F): 3.7 pmoles/106 cells; monophosphate (FdTMP) (NRK-49F): 3.5 pmoles/106 cells; triphosphate (FdTTP) (NRK-49F): 13.2 pmoles/106 cells; diphosphate (FdTDP) (3T3): 2.2 pmoles/106 cells; monophosphate (FdTMP) (3T3): 0.38 pmoles/106 cells; triphosphate (FdTTP) (3T3): 16.3 pmoles/106 cells; metabolised at 3 h, 1000 µM [1]: 3 to 8%; EC50 (HIV; read-out: ED50 (the source's name)): 0.003 µM; antiviral activity of FTdR against N3 -TdR (HIV; cellular test, ratio of ED50): 5 times; CC50 at 144 h (in vitro): 1.1 µM; IC50 ([2]; K562, dose required to reduce the cell number by 50%, K-562, read-out: CD50 (the source's name)): 45 µM; IC50 ([3]; dose required to reduce the cell number by 50%, read-out: CD50 (the source's name)): 160 µM; IC50 ([4]; dose required to reduce the cell number by 50%, K-37, read-out: CD50 (the source's name)): 260 µM; IC50 (H9 immortalized T-cells; dose required to reduce the cell number by 50%, H9, read-out: CD50 (the source's name)): 1000 µM; suppression of splenomegaly and viremia ([5]; 6.5 mg/kg/day): completely active in suppressing splenomegaly and viremia; Reverse transcriptas serum ([5]; 6.5 mg/kg/day for 20 days): 0%; mean spleen weight ([5]; 6.5 mg/kg/day in drinking water for 20 days): 192 mg; splenomegaly and RLV-associated reverse transcriptase activity in the serum ([5]; 69.0 mg/kg/day): completely suppresses; Reverse transcriptas serum ([5]; 69.0 mg/kg/day for 20 days): 0%; mean spleen weight ([5]; 69.0 mg/kg/day in drinking water for 20 days): 86 mg; development of RLV induced leukemia ([5]; 69.0 mg/kg/day, continuous application for 20 days): able to prevent the development of a leukemia; suppression of serum reverse transcriptase activity [5, 11]: more than 70%; suppression of splenomegaly [5, 11]: more than 50%; signs of anemia and depression of white cell counts ([6]; 6.5 mg/kg/day): failed to produce signs of anemia and depression of white cell counts; Hemoglobin [6, 12]: 8.1 mmol/L; changes of body weight [6, 12]: 0%; Hemoglobin [6, 13]: 8.9 mmol/L; changes of body weight [6, 13]: +1%; mean spleen weight [6, 13]: 125 mg; toxic side effects (hematological parameters) ([6]; 69.0 mg/kg/day): toxic side effects are associated with this concentration range; Hemoglobin [6, 14]: 5.1 mmol/L; changes of body weight [6, 14]: -10%; Hemoglobin [6, 15]: 4.3 mmol/L; changes of body weight [6, 15]: -12%; mean spleen weight [6, 15]: 72 mg; cytostatic effect [7]: only a weak cytostatic effect; capability of phosphorylation of FTdR in EMAC versus human cells [8]: 10 times

Question: For Cc1cn([C@H]2C[C@H](N=[N+]=[N-])[C@@H](CO)O2)c(=O)[nH]c1=O [N3 -TdR, 3'-azido-2',3'-dideoxythymidine, reference compound], which EC50 (HIV; read-out: ED50) is on record?
Answer: Its EC50 is 0.016 µM.

Question: And the IC50 ([2]; K562, read-out: CD50)?
Answer: Its IC50 is 50 µM.

Question: And the IC50 ([3]; read-out: CD50)?
Answer: The IC50 was 220 µM.

Question: And the IC50 ([4]; read-out: CD50)?
Answer: The IC50 was 500 µM.

Question: What about the IC50 (H9 immortalized T-cells; read-out: CD50) of the same compound?
Answer: Its IC50 is 800 µM.

Question: What about the “accumulation of the monophosphate” value [9] of the same compound?
Answer: Its value is 460 pmoles/10^6 cells.

Question: And the “phosphorylation to the triphosphate” value [9]?
Answer: The value was 0.9 pmoles/10^6 cells.

Question: And the “patients requiring blood transfusions (toxic side effects on the bone marrow)” value [10]?
Answer: The value was “about 50%”.

From patent US5153180A, “Fluorinated nucleosides and process for treating retrovirus infections therewith” (priority 1990, dated 1992)
